# Test results published in ChEMBL document CHEMBL1909294, “Translating clinical findings into knowledge in drug safety evaluation--drug induced liver injury prediction system (DILIps)” (PLoS Comput Biol, 2011).
# Experiments:
# Hepatotoxicity [1] = system: Hepatotoxicity;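 on HepSE Combined Scores: combined hepatic side effect score as listed in the training data of the Drug Induced Liver Injury Prediction System (DILIps)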;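 on HepSE cholelithiasis: hepatic side effect score for cholelithiasis, drawn from the DILIps training data for predicting drug-induced liver injury; call rule not given here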;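 on HepSE cirrhosis: cirrhosis hepatic side effect score taken from the DILIps (drug-induced liver injury prediction) training set; call rule not given here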;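 on HepSE elevated liver function tests: hepatic side effect score for raised liver function tests, as recorded in the DILIps training set used for predicting drug-induced liver injury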;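 on HepSE hepatic necrosis: score of hepatic side effects for hepatic necrosis, drawn from the training data of DILIps, a prediction system for drug-induced liver injury; call rule not given here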; on HepSE liver disease: call rule not given here;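 on HepSE liver function tests abnormal: hepatic side effect score taken from the DILIps (drug-induced liver injury prediction system) training data, here covering abnormal liver function test findings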
# Hepatotoxicity [2] = system: Hepatotoxicity; remark: listed apart in the source;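 on HepSE Combined Scores: combined hepatic side effect score as listed in the training data of the Drug Induced Liver Injury Prediction System (DILIps)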;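 on HepSE cholelithiasis: hepatic side effect score for cholelithiasis, drawn from the DILIps training data for predicting drug-induced liver injury; call rule not given here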;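 on HepSE cirrhosis: cirrhosis hepatic side effect score taken from the DILIps (drug-induced liver injury prediction) training set; call rule not given here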;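 on HepSE hepatic necrosis: score of hepatic side effects for hepatic necrosis, drawn from the training data of DILIps, a prediction system for drug-induced liver injury; call rule not given here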; on HepSE liver disease: call rule not given here;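 on HepSE liver function tests abnormal: hepatic side effect score taken from the DILIps (drug-induced liver injury prediction system) training data, here covering abnormal liver function test findings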
# Hepatotoxicity [3] = system: Hepatotoxicity; remark: listed apart in the source;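 on HepSE Combined Scores: combined hepatic side effect score as listed in the training data of the Drug Induced Liver Injury Prediction System (DILIps)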;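 on HepSE cholelithiasis: hepatic side effect score for cholelithiasis, drawn from the DILIps training data for predicting drug-induced liver injury; call rule not given here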;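 on HepSE cirrhosis: cirrhosis hepatic side effect score taken from the DILIps (drug-induced liver injury prediction) training set; call rule not given here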;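 on HepSE hepatic necrosis: score of hepatic side effects for hepatic necrosis, drawn from the training data of DILIps, a prediction system for drug-induced liver injury; call rule not given here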; on HepSE liver disease: call rule not given here;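 on HepSE liver function tests abnormal: hepatic side effect score taken from the DILIps (drug-induced liver injury prediction system) training data, here covering abnormal liver function test findings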
# Hepatotoxicity [4] = system: Hepatotoxicity; remark: listed apart in the source;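 on HepSE Combined Scores: combined hepatic side effect score as listed in the training data of the Drug Induced Liver Injury Prediction System (DILIps)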;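 on HepSE cholelithiasis: hepatic side effect score for cholelithiasis, drawn from the DILIps training data for predicting drug-induced liver injury; call rule not given here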;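 on HepSE cirrhosis: cirrhosis hepatic side effect score taken from the DILIps (drug-induced liver injury prediction) training set; call rule not given here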;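 on HepSE hepatic necrosis: score of hepatic side effects for hepatic necrosis, drawn from the training data of DILIps, a prediction system for drug-induced liver injury; call rule not given here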; on HepSE liver disease: call rule not given here;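 on HepSE liver function tests abnormal: hepatic side effect score taken from the DILIps (drug-induced liver injury prediction system) training data, here covering abnormal liver function test findings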
# Hepatotoxicity [5] = system: Hepatotoxicity; remark: listed apart in the source; on HepSE liver disease: call rule not given here
# Hepatotoxicity [6] = system: Hepatotoxicity; remark: listed apart in the source; on HepSE liver disease: call rule not given here
# Hepatotoxicity [7] = system: Hepatotoxicity; remark: listed apart in the source
# Hepatotoxicity [8] = system: Hepatotoxicity; remark: listed apart in the source
# Hepatotoxicity [9] = system: Hepatotoxicity; remark: listed apart in the source
# Hepatotoxicity [10] = system: Hepatotoxicity; remark: listed apart in the source
# Hepatotoxicity [11] = system: Hepatotoxicity; remark: listed apart in the source
# Hepatotoxicity [12] = system: Hepatotoxicity; remark: listed apart in the source
# Hepatotoxicity [13] = system: Hepatotoxicity; remark: listed apart in the source
# Hepatotoxicity [14] = system: Hepatotoxicity; remark: listed apart in the source
Compound,HepSE_Combined Scores (Hepatotoxicity [1]),HepSE_liver function tests abnormal (Hepatotoxicity [2]),HepSE_hepatic necrosis (Hepatotoxicity [3]),HepSE_cirrhosis (Hepatotoxicity [4]),HepSE_liver disease (Hepatotoxicity [5]),HepSE_cholelithiasis (Hepatotoxicity [6]),HepSE_elevated liver function tests (Hepatotoxicity [7]),HepSE_cholecystitis (Hepatotoxicity [8]),HepSE_hepatitis (Hepatotoxicity [9]),HepSE_bilirubinemia (Hepatotoxicity [10]),HepSE_jaundice (Hepatotoxicity [11]),HepSE_hepatomegaly (Hepatotoxicity [12]),HepSE_hepatic failure (Hepatotoxicity [13]),HepSE_liver fatty (Hepatotoxicity [14]),further results
Cc1cccc(C)c1OCC(C)N (stereo unspecified) [MEXILETINE],,,,,,,,,,,,,,,HepSE_Combined Scores (Hepatotoxicity [1]; Liver): 3; HepSE_liver function tests abnormal (Hepatotoxicity [2]; Liver): 1; HepSE_hepatic necrosis (Hepatotoxicity [3]; Liver): 1; HepSE_cirrhosis (Hepatotoxicity [4]; Liver): 0; HepSE_liver disease (Hepatotoxicity [5]; Liver): 0; HepSE_cholelithiasis (Hepatotoxicity [6]; Liver): 0; HepSE_elevated liver function tests (Hepatotoxicity [7]; Liver): 0; HepSE_cholecystitis (Hepatotoxicity [8]; Liver): 0; HepSE_hepatitis (Hepatotoxicity [9]; Liver): 1; HepSE_bilirubinemia (Hepatotoxicity [10]; Liver): 0; HepSE_jaundice (Hepatotoxicity [11]; Liver): 0; HepSE_hepatomegaly (Hepatotoxicity [12]; Liver): 0; HepSE_hepatic failure (Hepatotoxicity [13]; Liver): 0; HepSE_liver fatty (Hepatotoxicity [14]; Liver): 0
OCCN1CCN(CCCN2c3ccccc3Sc3ccc(Cl)cc32)CC1 [PERPHENAZINE],1,0,0,0,0,0,0,0,0,0,1,0,0,0,
NCCCC[C@H](N[C@@H](CCc1ccccc1)C(=O)O)C(=O)N1CCC[C@H]1C(=O)O [LISINOPRIL ANHYDROUS],3,0,0,0,0,0,0,0,1,0,1,0,1,0,
Cn1cnc([N+](=O)[O-])c1Sc1ncnc2nc[nH]c12 [AZATHIOPRINE],,,,,,,,,,,,,,,HepSE_Combined Scores (Hepatotoxicity [1]; Liver): 0; HepSE_liver function tests abnormal (Hepatotoxicity [2]; Liver): 0; HepSE_hepatic necrosis (Hepatotoxicity [3]; Liver): 0; HepSE_cirrhosis (Hepatotoxicity [4]; Liver): 0; HepSE_liver disease (Hepatotoxicity [5]; Liver): 0; HepSE_cholelithiasis (Hepatotoxicity [6]; Liver): 0; HepSE_elevated liver function tests (Hepatotoxicity [7]; Liver): 0; HepSE_cholecystitis (Hepatotoxicity [8]; Liver): 0; HepSE_hepatitis (Hepatotoxicity [9]; Liver): 0; HepSE_bilirubinemia (Hepatotoxicity [10]; Liver): 0; HepSE_jaundice (Hepatotoxicity [11]; Liver): 0; HepSE_hepatomegaly (Hepatotoxicity [12]; Liver): 0; HepSE_hepatic failure (Hepatotoxicity [13]; Liver): 0; HepSE_liver fatty (Hepatotoxicity [14]; Liver): 0
O=C1CN2Cc3c(ccc(Cl)c3Cl)N=C2N1 [ANAGRELIDE],1,0,0,0,0,0,1,0,0,0,0,0,0,0,
NCC(=O)CCC(=O)O [AMINOLEVULINIC ACID],0,0,0,0,0,0,0,0,0,0,0,0,0,0,
CN(C)CCC=C1c2ccccc2CCc2ccccc21 [AMITRIPTYLINE],3,0,0,0,0,0,0,0,1,0,1,0,1,0,
CN(C/C=C/C#CC(C)(C)C)Cc1cccc2ccccc12 [TERBINAFINE],3,0,0,0,1,0,0,0,0,0,1,0,1,0,
NC(N)=Nc1nc(CSCCC(N)=NS(N)(=O)=O)cs1 [FAMOTIDINE],,,,,,,,,,,,,,,HepSE_Combined Scores (Hepatotoxicity [1]; Liver): 1; HepSE_liver function tests abnormal (Hepatotoxicity [2]; Liver): 0; HepSE_hepatic necrosis (Hepatotoxicity [3]; Liver): 0; HepSE_cirrhosis (Hepatotoxicity [4]; Liver): 0; HepSE_liver disease (Hepatotoxicity [5]; Liver): 0; HepSE_cholelithiasis (Hepatotoxicity [6]; Liver): 0; HepSE_elevated liver function tests (Hepatotoxicity [7]; Liver): 0; HepSE_cholecystitis (Hepatotoxicity [8]; Liver): 0; HepSE_hepatitis (Hepatotoxicity [9]; Liver): 0; HepSE_bilirubinemia (Hepatotoxicity [10]; Liver): 0; HepSE_jaundice (Hepatotoxicity [11]; Liver): 1; HepSE_hepatomegaly (Hepatotoxicity [12]; Liver): 0; HepSE_hepatic failure (Hepatotoxicity [13]; Liver): 0; HepSE_liver fatty (Hepatotoxicity [14]; Liver): 0
COc1ccc2cc(CCC(C)=O)ccc2c1 [NABUMETONE],3,0,0,0,0,0,1,0,0,0,1,0,1,0,
O=C1NC(=O)C(c2ccccc2)(c2ccccc2)N1 [PHENYTOIN],,,,,,,,,,,,,,,HepSE_Combined Scores (Hepatotoxicity [1]; Liver): 1; HepSE_liver function tests abnormal (Hepatotoxicity [2]; Liver): 0; HepSE_hepatic necrosis (Hepatotoxicity [3]; Liver): 0; HepSE_cirrhosis (Hepatotoxicity [4]; Liver): 0; HepSE_liver disease (Hepatotoxicity [5]; Liver): 0; HepSE_cholelithiasis (Hepatotoxicity [6]; Liver): 0; HepSE_elevated liver function tests (Hepatotoxicity [7]; Liver): 0; HepSE_cholecystitis (Hepatotoxicity [8]; Liver): 0; HepSE_hepatitis (Hepatotoxicity [9]; Liver): 1; HepSE_bilirubinemia (Hepatotoxicity [10]; Liver): 0; HepSE_jaundice (Hepatotoxicity [11]; Liver): 0; HepSE_hepatomegaly (Hepatotoxicity [12]; Liver): 0; HepSE_hepatic failure (Hepatotoxicity [13]; Liver): 0; HepSE_liver fatty (Hepatotoxicity [14]; Liver): 0
CNC1(c2ccccc2Cl)CCCCC1=O (stereo unspecified) [KETAMINE],0,0,0,0,0,0,0,0,0,0,0,0,0,0,
Cc1nc2n(c(=O)c1CCN1CCC(c3noc4cc(F)ccc34)CC1)CCCC2 [RISPERIDONE],8,0,0,0,0,1,0,1,1,1,1,1,1,1,
N[C@@H]1CON=C1O [CYCLOSERINE],1,0,0,0,1,0,0,0,0,0,0,0,0,0,
